Assay [1] has as its target T1, Peroxisome proliferator-activated receptor alpha (Homo sapiens, UniProt Q07869).
T1 sequence (Q07869 whole entry): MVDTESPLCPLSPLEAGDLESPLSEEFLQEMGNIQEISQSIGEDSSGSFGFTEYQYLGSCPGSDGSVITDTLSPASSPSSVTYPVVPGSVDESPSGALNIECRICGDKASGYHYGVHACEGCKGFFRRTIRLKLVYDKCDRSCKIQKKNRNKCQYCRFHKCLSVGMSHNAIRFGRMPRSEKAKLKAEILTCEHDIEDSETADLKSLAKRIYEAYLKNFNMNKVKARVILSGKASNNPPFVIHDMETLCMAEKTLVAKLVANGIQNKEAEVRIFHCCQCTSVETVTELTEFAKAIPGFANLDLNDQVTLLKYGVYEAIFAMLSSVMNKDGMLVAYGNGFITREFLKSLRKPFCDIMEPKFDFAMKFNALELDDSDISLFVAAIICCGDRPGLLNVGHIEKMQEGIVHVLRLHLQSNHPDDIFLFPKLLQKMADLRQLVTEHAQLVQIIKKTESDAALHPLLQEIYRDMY
Description: Displacement of [3H]2-(4-(2-(3-(2,4-difluorophenyl)-1-heptylureido)ethyl)phenoxy)-2-methylbutanoic acid from human PPARalpha after 30 mins by SPA assay

Assay [2] concerns the target T2, Peroxisome proliferator-activated receptor delta (Homo sapiens, UniProt Q03181).
T2 sequence (Q03181 whole entry): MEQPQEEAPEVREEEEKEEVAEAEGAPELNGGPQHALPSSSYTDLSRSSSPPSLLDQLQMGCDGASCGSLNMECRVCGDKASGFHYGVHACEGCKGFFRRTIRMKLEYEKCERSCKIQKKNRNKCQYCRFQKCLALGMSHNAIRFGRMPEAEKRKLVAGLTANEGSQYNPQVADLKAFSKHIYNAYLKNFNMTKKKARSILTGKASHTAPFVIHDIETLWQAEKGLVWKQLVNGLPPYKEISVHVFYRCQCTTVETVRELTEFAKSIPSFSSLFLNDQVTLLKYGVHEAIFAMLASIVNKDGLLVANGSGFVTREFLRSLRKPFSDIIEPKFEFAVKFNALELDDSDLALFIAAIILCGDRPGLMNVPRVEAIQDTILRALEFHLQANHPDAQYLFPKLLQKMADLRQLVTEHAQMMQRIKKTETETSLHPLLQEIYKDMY
Description: Displacement of [3H]2-(4-(3-(4-acetyl-3-hydroxy-2 propyl-phenoxy)propoxy)phenoxy)acetic acid from human PPARdelta after 30 mins by SPA assay

Assay [3] has as its target T2, Peroxisome proliferator-activated receptor delta. In kind it is functional, cell-based, HepG2.
Description: Agonist activity at human PPARdelta expressed in HepG2 cells after 16 hrs by luciferase reporter gene assay

Drawing on ChEMBL document CHEMBL1148881 (Bioorg Med Chem Lett, 2007), this text covers IC50 and EC50 for 20 molecules.

Take `O=C(O)COc1ccc(SCc2ccc(OCc3ccc(C(F)(F)F)cc3)cc2)c2c1CCCO2`: the IC50 in assay [1] is 791 nM.

Consider `Cc1cc(SCc2ccc(OCc3ccc(C(F)(F)F)cc3)cc2)c2c(c1OCC(=O)O)CCC2`, for which the IC50 in assay [2] is 586 nM; in assay [3], above 10000 nM; in assay [1], 311 nM.

As for `O=C(O)COc1ccc(SCc2ccc(OCc3ccc(C(F)(F)F)cc3)cc2)c2c1CCC2`, the half-maximal inhibitory concentration (IC50) in assay [1] turned out to be 1200 nM.

Consider `O=C(O)COc1ccc(SCc2ccc(OCc3cc(Cl)ccc3Cl)cc2)c2c1CCC2`, for which the half-maximal inhibitory concentration (IC50) in assay [2] is 69 nM; in assay [1] it was 4190 nM. In assay [3], a half-maximal effect (EC50) was put at 585 nM.

For `O=C(O)COc1ccc(SCc2ccc(OCc3ccc(F)cc3)cc2)c2c1CCC2`, the values for the IC50 in assay [2] and in assay [1] were 191 nM and above 10000 nM, respectively. Further, the EC50 in assay [3] was 13600 nM.

Consider `O=C(O)COc1ccc(SCc2cc(F)ccc2OCc2ccc(C(F)(F)F)cc2)c2c1CCC2`, for which the IC50 is 1.7 nM in assay [2] and above 10000 nM in assay [1]. This molecule displayed a 50% effective concentration (EC50) in assay [3] of 70 nM.

Regarding `O=C(O)COc1ccc(SCc2ccc(OCc3ccc(OC(F)(F)F)cc3)cc2)c2c1CCC2`, the IC50 in assay [2] was found to be 76 nM; in assay [1], 672 nM. In assay [3], the concentration for a half-maximal effect (EC50) stood at 530 nM.

As for `COc1cc(OCC(=O)O)c(C)cc1SCc1ccc(OCc2ccc(C(F)(F)F)cc2)cc1`, half-maximal inhibition in assay [1] (IC50) required 4.7 nM.

With `Cc1cc(SCc2ccc(OCc3ccc(C(F)(F)F)cc3)cc2)ccc1OCC(=O)O`, the figures for the IC50 in assay [2] and in assay [1] were 19 nM and 578 nM, respectively. Further, the response in assay [3] was half-maximal at 252 nM (EC50).

On to `O=C(O)COc1ccc(SCc2ccc(OCc3ccc(Cl)cc3)cc2)c2c1CCC2`, for which the IC50 stood at 89 nM in assay [2] and 3910 nM in assay [1]. In assay [3], this molecule showed a concentration giving a half-maximal response (EC50) of 933 nM.

As for `COc1ccc(COc2ccc(CSc3ccc(OCC(=O)O)c4c3CCC4)cc2)cc1`, the IC50 in assay [2] came out at 120 nM; in assay [1], 4950 nM. In addition, the 50% effective concentration (EC50) in assay [3] came out at 1970 nM.

As for `O=C(O)COc1ccc(SCc2ccc(OCc3ccccc3)cc2)c2c1CCC2`, the IC50 in assay [2] is 125 nM; in assay [1], above 10000 nM. This molecule returned a concentration for a half-maximal effect (EC50) in assay [3] of 2210 nM.

On to `O=C(O)COc1ccc(SCc2ccccc2OCc2ccc(C(F)(F)F)cc2)c2c1CCC2`, for which the half-inhibitory concentration (IC50) in assay [2] is 10.4 nM; in assay [1], above 10000 nM. In assay [3], this molecule registered an EC50 of 230 nM.

For `O=C(O)COc1ccc(SCc2ccc(F)cc2OCc2ccc(C(F)(F)F)cc2)c2c1CCC2`, the IC50 in assay [2] was 62 nM; in assay [1], 3110 nM.

On to `O=C(O)COc1ccc(SCc2c(F)cccc2OCc2ccc(C(F)(F)F)cc2)c2c1CCC2`, for which the IC50 was 286 nM in assay [2] and above 10000 nM in assay [1]. In assay [3], this molecule came in with an EC50 of 2610 nM.

For `Cc1cc(SCc2ccc(OCc3ccc(C(F)(F)F)cc3)cc2)c(Cl)cc1OCC(=O)O`, the figures for the IC50 in assay [2] and in assay [1] were 20 nM and 128 nM, respectively. The midpoint of the response in assay [3], the EC50, lay at 374 nM.

For `Cc1cc(SCc2ccc(OCc3ccc(C(F)(F)F)cc3)cc2)c2c(c1OCC(=O)O)CCCO2`, the values for the half-inhibitory concentration (IC50) in assay [2], in assay [3] and in assay [1] were 313 nM, above 10000 nM and 428 nM, respectively.

For the molecule `CC(C)(C)c1ccc(COc2ccc(CSc3ccc(OCC(=O)O)c4c3CCC4)cc2)cc1`, the values for the concentration for half-maximal inhibition (IC50) in assay [2] and in assay [1] were 148 nM and 1540 nM, respectively. The molecule also gave an EC50 in assay [3] of 267 nM.

Turning to `O=C(O)COc1ccc(SCc2ccc(OCc3ccc(F)cc3C(F)(F)F)cc2)c2c1CCC2`, the IC50 in assay [2] was found to be 356 nM; in assay [1], 3480 nM. The concentration giving a half-maximal response (EC50) in assay [3] amounted to 1720 nM.

For the molecule `O=C(O)COc1ccc(SCc2cccc(F)c2OCc2ccc(C(F)(F)F)cc2)c2c1CCC2`, the IC50 was found to be 111 nM in assay [2] and 3670 nM in assay [1].
